Measured values taken from patent US20210379088A1, “CANCER REGRESSION BY INDUCING A REGENERATION-LIKE RESPONSE” (VIB VZW, priority 2018, published 2021).

Legend:
liver = details: mice, feeding for 5 days with 0.2% cholic acid; cited from earlier work
[1] = system: N-Akt tumors (intrahepatic cholangiocarcinoma); assay: N-Akt intrahepatic cholangiocarcinoma in Apo>hYAP1SA mice, doxycycline-induced hYAP1SA expression in peritumoral hepatocytes; format: in vivo, mouse
Procedure: For intrahepatic delivery of the transposon system (Kang et al., 2011), eight to ten-week-old mice were secured and hydrodynamically injected with 1 μg pCMV/SB11, 4 μg pSBbi-puro-myrAKT-HA, 20 μg of pSBbi-puro-myc-NICD, or 10 μg of cMyc-IRES-NRas via lateral tail vein. For the expression of SB-Cre^ERT2 or inducible Bcl2, 15 μg of pSBbi-puro-Cre^ERT2 or 10 μg of pSBTetON—RH-Flag-Bcl2, respectively, were added to the plasmid mixture. All plasmids were diluted in sterile filtered 0.9% NaCl, and the total volume was adjusted to 10% (in ml) of the total body weight (in grams).
(§1) For conditional deletion of Yap and Taz, tamoxifen was administered for 5 consecutive days, via intraperitoneal injection at a concentration of 1.6 mg/kg in corn oil. In order to activate the expression of TetON-Bcl2 or human YAP expression in Apo>hYAP^1SA mice, 0.2 mg/ml of doxycycline was diluted in filtered sterile drinking water supplemented with 2.5% sucrose and administered ad libido. Doxycycline containing water bottles were protected from light and replaced every other day.
(§2) All quantifications were performed using ImageJ software. Quantification of relative tumor area was done by measuring the tumor area (marked by HA-Akt positive cells in N-Akt model, phospho-ERK expression in Myc-Ras model or S100 expression in melanoma model) and the total area (marked by DAPI). […] We inferred absolute tumor load by multiplying the tumor area by the liver weight of each mouse (absolute tumor load (cm^3)=tumor area (cm)×liver weight (grams).
We next tested whether overexpression of a constitutively active form of YAP (YAP^1SA; this is the YAP variant carrying the mutation Ser127Ala; see description hereinabove), due to mutation of the main Lats1/2 phosphorylation site, is sufficient to recapitulate the tumor regression caused by Lats1/2 deletion. We used transgenic mice that conditionally overexpressed human YAP^1SA in hepatocytes under the control of a doxycycline (Dox) inducible promoter (TetON system) and where the reverse tetracycline transactivator (rtTA) is expressed under the hepatocyte-specific ApoE promoter (hereafter Apo>hYAP^1SA)(Dong et al., 2007). Upon doxycycline feeding, Apo>hYAP^1SA mice induced hepatocyte proliferation and developed liver overgrowth as previously reported (FIG. 10A,B) (Dong et al. 2007). We then induced N-Akt tumors in Apo>hYAP^1SA mice and induced hYAP^1SA expression after 4 weeks of tumor development by adding doxycycline to their drinking water (FIG. 5A). As expected, YAP protein levels increased in doxycycline treated Apo>hYAP^1SA mice but not in non-treated Apo>hYAP^1SA mice or in doxycycline treated C57BL/6 mice (FIG. 10C). […]

[2] = system: NRAS-mutant metastatic melanoma cells in the liver; assay: NRas+/INK4a-/- melanoma liver metastases in Apo>hYAP1SA mice, doxycycline-induced hYAP1SA expression; format: in vivo, mouse; details: Apo>YAP1SA mice injected with 10.000 melanoma cells; 2 weeks after YAP activation by doxycycline in drinking water
Procedure: For intrahepatic seeding of tumor cells, mice were hydrodynamically injected with 10.000 mouse melanoma cells (NRas^+/INK4a^−/−) diluted in sterile minimal essential medium (MEM), adjusted to 10% (in ml) of total body weight (in grams). All injected mice were monitored daily and sacrificed in groups at appropriate time points. All experimental and control groups contained 5 to 10 mice.
as §1
as §2, with “(grams). […]” for “(grams).”

N-Akt tumors = assay: Control experiments: effect of tamoxifen or AAV-Cre on N-Akt tumor growth in control mice; format: in vivo, mouse; details: control mice with N-Akt tumors without floxed-gene deletion (C57BL/6, or Yap fl/fl;Taz fl/fl without SB-CreERT2)
Procedure: as §1
Adeno-associated virus serotype 8 (AAV8) expressing CRE recombinase under the hepatocyte specific promoter TBG was purchased from UPenn (AAV8.TBG.PI.Cre.rBG, catalog AV-8-PV1091). Mice received 5×10^11 GC of AAV8.TBG.PI.Cre.rBG diluted in 200 ul of 1× phosphate-buffered saline (PBS) by tail vein injection.
as §2

C[C@H](CCC(=O)O)[C@H]1CC[C@H]2[C@@H]3[C@H](O)C[C@@H]4C[C@H](O)CC[C@]4(C)[C@H]3C[C@H](O)[C@]12C [cholic acid]
liver size increase (liver): 30%

C[C@H]1c2cccc(O)c2C(=O)C2=C(O)[C@]3(O)C(=O)C(C(N)=O)=C(O)[C@@H](N(C)C)[C@@H]3[C@@H](O)[C@@H]21 [doxycycline]
survival after tumor initiation ([1]; Apo>hYAP1SA mice, two weeks of doxycycline administration): up to 14 weeks
average survival longer than the control mice ([1]; treated Apo>hYAP1SA mice): 4 weeks
mice with only a few small tumor remnants ([1]; treated Apo>hYAP1SA mice, after 2 weeks of doxycycline): 5/10
treated mice still alive ([1]; within 6 weeks of tumor initiation, when half of the control mice had died): more than 80%
reduction in tumor load [2]: 98%

CC/C(=C(\c1ccccc1)c1ccc(OCCN(C)C)cc1)c1ccccc1 [tamoxifen]
effect on tumor development, growth or total tumor volume (N-Akt tumors): not affected
